Experimental data taken from patent US8486991B2, “Enantiomerically pure phosphoindoles as HIV inhibitors” (Idenix Pharmaceuticals, Inc., priority 2006, dated 2013).
Like-named read-outs stand apart in the source and are kept apart here.

Columns and labels:
HIV-1 W.T. (NL4-3) virus = test: PBMC cell assay, W.T. (NL4-3); format: cell-based
[1] = target: site-directed mutant HIV-1 RT enzymes; test: HIV-1 RT enzyme assay, whole panel (ranges); format: biochemical; settings: for IC50: Table 3, range over W.T. and 7 mutant enzymes; for Mean Activity Range (fold-resistance): Table 4, range of fold changes over the panel
Description: In Vitro Antiviral Activity Against Additional Mutant HIV RT Enzymes
The studies are summarized in the text that follows.

[2] = Cellular cytotoxicity, 4 days, MTS, MOLT-4; format: cell-based; settings: human, Table 21, read-out: Average CC50 Values ± Standard Deviation, MOLT-4
Description: (§2) Cell viability was measured by standard MTT or MTS staining.

in vitro = test: in vitro
Description: Cell viability was determined via MTT staining.

HIV-1 W.T. (BH10) virus [3] = test: microbe, parasite or virus in culture; format: cell-based; settings: for Fold Change, W.T.: Table 13, MT-2
Description: The HIV-1 strains used were BH10, NL4-3 and IIIB: the cell lines were U-937 cells (human monocytes derived from a histiocytic lymphoma); MOLT-4 cells (a human T lymphoblastic leukemia cell line); H-9 cells (human lymphoblastic T cells); and MT-2 and MT-4 human leukemia T cells.

[4] = Cellular cytotoxicity, 4 days, MTS, MT-4; settings: human, Average CC50 Values ± Standard Deviation, MT-4, Table 21, 4 days, MTS
Description: Following drug exposure for 4 days, cell viability was measured by MTS staining and CC50 values were determined. Drug concentrations ranged from 0.005 μM to 100 μM.
The preceding data, allows us to calculate selectivity index (SI) values, based on the ratio of CC50 to EC50 in MT-4 cells (the standard assay used in this work).

[5] = tested on: HIV-1 W.T. strains BH10, NL4-3 and IIIB; test: Drug susceptibility assays, 3 W.T. strains in 5 human cell lines (ranges); format: cell-based
Description: The virus and host-cell dependency of Compound I, Compound III and control drugs was further examined in drug susceptibility assays performed across 3 different subtype B wild-type HIV-1 strains and 5 different cell lines.

[6] = Longer term cytotoxicity, 9 days, MTS, HeLa; settings: human
Description: as §2
(§3) Cells were repeatedly treated with a range of drug concentrations (0.005 to 100 μM) for 9 (HeLa) or 12 days (HuH7, HepG2).

[7] = tested on: HIV-1 IIIB K103R/V179D/P225H triple mutant virus; test: microbe, parasite or virus in culture; format: cell-based; settings: for EC50: Human immunodeficiency virus 1, IIIB; for Fold Change, K103R/V179D/P225H: Table 16, IIIB
Description: (§1) The test articles were next profiled against a panel of HIV-1 IIIB laboratory cultivated mutants as summarized in the text below. Antiviral efficacy was determined via a CPE assay with an MTS read-out for cell viability.

HIV-1 IIIB w.t. virus = test: microbe, parasite or virus in culture; format: cell-based; settings: for Fold Change, W.T.: Table 16
Description: as §1

HIV-1 W.T. (BH10) virus [8] = test: PBMC cell assay, W.T. (BH10); format: cell-based
[9] = Longer term cytotoxicity, 12 days, MTS, HepG2; settings: human
Description: as §2, §3

[10] = tested on: HIV-1 BH10 wild-type virus; test: CPE / cell protection assay, MT-4 cells, BH10 wild-type; format: cell-based; settings: for EC50: Human immunodeficiency virus 1, MT4; for Fold Change, W.T.: Table 9, CPE
Description: The activity of the compounds was also assessed with the same virus and cell type using a different assay readout based on cytopathic effect (CPE).
MT-4 cells (Source: NIH Catalog #120) were seeded onto 96-well cell culture plates (1×10^4 cells per well in 50 μL).
The final DMSO concentration in the assay was 0.5% in 120 μL. Cell cultures were then incubated at 37° C./5% CO2 for 4 days. Then, Cell Titer 96 AQueous One Solution Cell Proliferation Assay (Promega) was used to measure cell viability. Briefly, the One Solution Reagent was added directly to culture wells (20 μL/well), incubated for 5 hours, and the absorbance was recorded at 492 nm using the Sunrise Tecan Spectrophotometer.
The EC50 values were determined from the percent inhibition versus concentration data using a sigmoidal non-linear regression analysis based on four parameters with Tecan Magellan software.

[11] = tested on: 9 different HIV-1 subtypes (A, B, C, D, F1, G, H, AE, AG), 18 viruses; test: PhenoSense testing, HIV-1 subtype panel; format: cell-based; settings: Human immunodeficiency virus 1, read-out: potency range, panel of 9 different HIV-1 subtypes
Description: The activities of the test and control compounds were next tested against a subtype panel which covers all major HIV-1 subtypes or clades (A, B, C, D, F1, G, H, AE and AG). This panel was part of a 64 virus panel selected from the large library of clinical isolates Monogram BioSciences (formerly ViroLogics). Each of the subtypes in the panel was represented by 2 distinct viruses which share many sequence similarities, but also some key differences and therefore could respond differently to one or more of the drugs included in this study.

[12] = Cellular cytotoxicity, 4 days, MTS, MT-2; format: cell-based; settings: human, Table 21, read-out: Average CC50 Values ± Standard Deviation, MT-2
Description: as §2

[13] = target: human DNA polymerase beta (Homo sapiens, UniProt P06746); test: Human cellular DNA polymerase beta assay; format: biochemical
Description: HIV RT, like other viral polymerase, shares limited structural homology with the cellular DNA polymerases responsible for normal nuclear and mitochondrial DNA synthesis and repair. This raises the formal possibility that inhibitors of HIV RT might inhibit cellular polymerases, resulting in cellular toxicity. In particular, inhibition of polymerase gamma has the potential to result in mitochondrial toxicity. The ability of Compound I and Compound III to inhibit cellular DNA polymerases was assessed using standard in vitro assays (Table 5).

[14] = Longer term cytotoxicity, HeLa, HuH7 and HepG2 (ranges); settings: human, HuH7 and HepG2, 9-12 day testing
Description: as §2, §3

[15] = Human immunodeficiency virus 1, NL43, PBMC, read-out: Average EC50 Values ± Standard Deviation, W.T. (NL4-3)
[16] = Human immunodeficiency virus 1, NL43, PBMC, read-out: mean EC50, NL4-3 strain in human PBMC
[17] = Human immunodeficiency virus 1, MT2, read-out: Average EC50 Values ± Standard Deviation, W.T. (BH10)
[18] = Human immunodeficiency virus 1, MT2, read-out: Average EC50 Values ± Standard Deviation, host MT-2, virus BH10
[19] = MT4, read-out: Average EC50 Values ± Standard Deviation, K103R/V179D/P225H
[20] = MT4, read-out: EC50, K103R/V179D/P225H triple mutant virus
[21] = Human immunodeficiency virus 1, MT4, Table 15, IIIB, CPE, read-out: Average EC50 Values ± Standard Deviation, W.T.
[22] = Human immunodeficiency virus 1, PBMC, read-out: Average EC50 Values ± Standard Deviation, W.T. (BH10)
[23] = Human immunodeficiency virus 1, PBMC, read-out: mean EC50, BH-10 strain in human PBMC
[24] = Cell Protection Assay tables, unit inferred, read-out: EC50, BH10
[25] = Table 8, CPE readout, read-out: Average EC50 Values ± Standard Deviation, W.T.
[26] = range over the three agents, read-out: mean EC50 values, WT BH10 virus, CPE assay
[27] = MOLT-4 cells (T lymphoblastic leukemia cell line)
[28] = Human immunodeficiency virus 1, Table 17; over all virus/host combinations; read-out: Mean Activity Range
[29] = Human immunodeficiency virus 1; read-out: EC50 range, 3 HIV-1 viral strains in 5 host human cell lines
[30] = Table 5, read-out: Average IC50 Values ± Standard Deviation, DNA Pol Beta
[31] = HuH7 and HepG2 cells (range over the three lines)

SMILES	EC50 (HIV-1 W.T. (NL4-3) virus; [15]) [nM]	EC50 (HIV-1 W.T. (NL4-3) virus; [16]) [nM]	IC50 [1] [nM]	Mean Activity Range (fold-resistance) [1] [µM]	CC50 at 3 days (in vitro) [nM]	EC50 (HIV-1 W.T. (BH10) virus [3]; [17]) [nM]	EC50 (HIV-1 W.T. (BH10) virus [3]; [18]) [nM]	Fold Change, W.T. (HIV-1 W.T. (BH10) virus [3]) [fold]	EC50 [7, 19] [nM]	EC50 [7, 20] [nM]	Fold Change, K103R/V179D/P225H [7] [fold]	EC50 (HIV-1 IIIB w.t. virus; [21]) [nM]	Fold Change, W.T. (HIV-1 IIIB w.t. virus; IIIB) [fold]	EC50 (HIV-1 W.T. (BH10) virus [8]; [22]) [nM]	EC50 (HIV-1 W.T. (BH10) virus [8]; [23]) [nM]	EC50 [10, 24] [nM]	EC50 [10, 25] [nM]	EC50 [10, 26] [nM]	EC50 [11] [nM]	Average IC50 Values ± Standard Deviation, DNA Pol Beta ([13]; Table 5)	also measured
CO[P@](=O)(c1cc(C)cc(/C=C/C#N)c1)c1c(C(N)=O)[nH]c2ccc(Cl)c(F)c12 [Compound I, (2-Carbamoyl-5-chloro-4-fluoro-1H-indol-3-yl)-[3-((E)-2-cyano-vinyl)-5-methyl-phenyl]-(R)-phosphinic acid methyl ester]	1.5 ± 0.7	1.5	160 to 4670	0.5 to 15.5	52600	0.9 ± 0.6	0.9 ± 0.6	1	10 ± 1.5	10	11.1±4.1	1 ± 0.4	1	0.4 ± 0.1	0.4	0.28 ± 0.072	0.3 ± 0.1	0.1 to 0.7	0.25 to 3.2	did not reach an IC50	CC50 at 4 days [2]: 16600 ± 400 nM; CC50 at 4 days [4]: 27000 nM; EC50 ([5]; Human immunodeficiency virus 1, read-out: EC50 range, 3 HIV-1 viral strains in 5 host human cell lines): 0.5 to 2 nM; EC50 ([5]; Human immunodeficiency virus 1, read-out: Mean Activity Range, Table 17; over all virus/host combinations): 0.5 nM; CC50 at 9 days [6]: 27900 ± 1140 nM; Fold Change, K103R/V179D/P225H ([7]; listed as Cmpd. I): 11.1 ± 4.1 fold; CC50 at 12 days [9]: 25700 ± 3260 nM; Fold Change, W.T. [10]: 1 fold; CC50 at 4 days [12]: 23500 ± 1000 nM; IC50 ([13]; Average IC50 Values ± Standard Deviation, DNA Pol Beta, Table 5): ≥ 422000 nM; IC50 ([13]; Mean IC50 Values ± Standard Deviation, DNA Pol Beta, Table 6, N=4): 422000 ± 150000 nM; CC50 ([14]; CC50 range): 23500 to 31500 nM
CO[P@](=O)(c1cc(C)cc(/C=C/C#N)c1)c1c(C(N)=O)[nH]c2ccc(Cl)cc12 [Compound III, (2-Carbamoyl-5-chloro-1H-indol-3-yl)-[3-((E)-2-cyano-vinyl)-5-methyl-phenyl]-(R)-phosphinic acid methyl ester]	1.5 ± 0.5	1.5	130 to 2990	0.6 to 13.7		1.1 ± 0.4	1.1 ± 0.4	1	25 ± 6	21 to 25	53.5±12.8	0.5 ± 0.1	1	0.4 ± 0.1	0.4	0.15 ± 0.11	0.2 ± 0.1	0.1 to 0.7	0.2 to 2.14	did not reach an IC50	CC50 at 4 days [2, 27]: 14800 ± 1000 nM; CC50 at 3 days (in vitro; human, stimulated primary blood mononuclear cells (PBMC)): 66900 nM; CC50 at 4 days ([4]; MT-4 cells (leukemia T cells)): 18600 nM; EC50 [5, 28]: 0.5 nM; EC50 [5, 29]: 0.5 to 1.7 nM; CC50 at 9 days ([6]; HeLa epithelial cells): 29900 ± 2090 nM; Fold Change, K103R/V179D/P225H ([7]; listed as Cmpd. III): 53.5 ± 12.8 fold; CC50 at 12 days ([9]; HepG2 liver cells): 23500 ± 1510 nM; Fold Change, W.T. [10]: 1 fold; CC50 at 4 days ([12]; MT-2 cells (leukemia T cells)): 25900 ± 2100 nM; IC50 [13, 30]: ≥ 479000 nM; CC50 [14, 31]: 23500 to 31500 nM
O=C1Nc2ccc(Cl)cc2C(C#CC2CC2)(C(F)(F)F)O1 (centres unmarked) [EFV, 6-chloro-4-cyclopropylethynyl-4-trifluoromethyl-1,4-dihydro-2H-3,1-benzoxazin-2-one, reference compound]			≥ 20		70900 ± 7600	0.8 ± 0.2	0.8 ± 0.2		> 1000	> 1000							0.6 ± 0.1	0.1 to 0.7	0.4 to 3.1	did not reach an IC50	EC50 (HIV-1 W.T. (NL4-3) virus; Human immunodeficiency virus 1, NL43, Table 14, PBMC, read-out: Average EC50 Values ± Standard Deviation, W.T. (NL4-3)): 2.1 ± 0.7 nM; CC50 at 4 days [2, 27]: 41700 ± 3400 nM; CC50 at 4 days ([4]; MT-4 cells (leukemia T cells)): 44100 ± 18200 nM; EC50 [5, 28]: 0.8 ± 2.3 nM; EC50 [5, 29]: 0.4 to 3.2 nM; CC50 at 9 days ([6]; HeLa epithelial cells): 48600 ± 2500 nM; EC50 (HIV-1 IIIB w.t. virus; Human immunodeficiency virus 1, IIIB, MT4, read-out: Average EC50 Values ± Standard Deviation, W.T.): 1.5 ± 0.6 nM; EC50 (HIV-1 W.T. (BH10) virus [8]; Human immunodeficiency virus 1, Table 14, PBMC, read-out: Average EC50 Values ± Standard Deviation, W.T. (BH10)): 0.9 ± 0.3 nM; CC50 at 12 days ([9]; HepG2 liver cells): 80600 ± 12100 nM; CC50 at 4 days ([12]; MT-2 cells (leukemia T cells)): 24600 ± 4500 nM; IC50 [13, 30]: 314000 ± 177000 nM; IC50 ([13]; Table 6, N=4, read-out: Mean IC50 Values ± Standard Deviation, DNA Pol Beta): 314000 ± 177000 nM; CC50 [14, 31]: 48000 to 81000 nM
